Data as given in ChEMBL document CHEMBL6177991, “Discovery of P11-2: A Potent First-in-Class MNK1-Targeting PROTAC Degrader for the Treatment of Cancer” (J Med Chem, 2025).

Tests used:
[1] = Toxicity in male ICR mouse assessed as histopathological change in heart at 100 mg/kg, ip measured after 14 days by hematoxylin and eosin staining based analysis; type: organism-based; settings: in vivo, 336 h, time 14 day
[2] = Toxicity in male ICR mouse assessed as histopathological change in spleen at 100 mg/kg, ip measured after 14 days by hematoxylin and eosin staining based analysis; type: organism-based; settings: in vivo, 336 h, time 14 day

SMILES: O=C1CCC(N2Cc3c(NC(=O)CCCCCC(=O)N4CCC(C(=O)Nc5ncc(-c6ccccc6)s5)CC4)cccc3C2=O)C(=O)N1 (configuration not stated)
- Activity [1]: Non-toxic
- Activity [2]: Non-toxic
